Consider 26 compounds from ChEMBL document CHEMBL5500376, “Novel pyxinol amide derivatives bearing an aliphatic heterocycle as P-glycoprotein modulators for overcoming multidrug resistance” (Eur J Med Chem, 2024).

“And” between values parts separate entries of the source, which are not always exact repeats. Equal entries are not always repeated. Structures can show the parent of a compound that is named as a salt. The source made the active and inactive calls. The calls are words filed in the database; no cut-off is given here.

In series [1] the target is T1, ATP-dependent translocase ABCB1 (Homo sapiens, UniProt P08183). The series can be described thus: Substrate activity at Pgp in human KVB cells assessed as intracellular accumulation measured after 4 hrs by LC-MS/MS analysis. The format is cell-based. Conditions: kbv.
T1 sequence (P08183 whole entry): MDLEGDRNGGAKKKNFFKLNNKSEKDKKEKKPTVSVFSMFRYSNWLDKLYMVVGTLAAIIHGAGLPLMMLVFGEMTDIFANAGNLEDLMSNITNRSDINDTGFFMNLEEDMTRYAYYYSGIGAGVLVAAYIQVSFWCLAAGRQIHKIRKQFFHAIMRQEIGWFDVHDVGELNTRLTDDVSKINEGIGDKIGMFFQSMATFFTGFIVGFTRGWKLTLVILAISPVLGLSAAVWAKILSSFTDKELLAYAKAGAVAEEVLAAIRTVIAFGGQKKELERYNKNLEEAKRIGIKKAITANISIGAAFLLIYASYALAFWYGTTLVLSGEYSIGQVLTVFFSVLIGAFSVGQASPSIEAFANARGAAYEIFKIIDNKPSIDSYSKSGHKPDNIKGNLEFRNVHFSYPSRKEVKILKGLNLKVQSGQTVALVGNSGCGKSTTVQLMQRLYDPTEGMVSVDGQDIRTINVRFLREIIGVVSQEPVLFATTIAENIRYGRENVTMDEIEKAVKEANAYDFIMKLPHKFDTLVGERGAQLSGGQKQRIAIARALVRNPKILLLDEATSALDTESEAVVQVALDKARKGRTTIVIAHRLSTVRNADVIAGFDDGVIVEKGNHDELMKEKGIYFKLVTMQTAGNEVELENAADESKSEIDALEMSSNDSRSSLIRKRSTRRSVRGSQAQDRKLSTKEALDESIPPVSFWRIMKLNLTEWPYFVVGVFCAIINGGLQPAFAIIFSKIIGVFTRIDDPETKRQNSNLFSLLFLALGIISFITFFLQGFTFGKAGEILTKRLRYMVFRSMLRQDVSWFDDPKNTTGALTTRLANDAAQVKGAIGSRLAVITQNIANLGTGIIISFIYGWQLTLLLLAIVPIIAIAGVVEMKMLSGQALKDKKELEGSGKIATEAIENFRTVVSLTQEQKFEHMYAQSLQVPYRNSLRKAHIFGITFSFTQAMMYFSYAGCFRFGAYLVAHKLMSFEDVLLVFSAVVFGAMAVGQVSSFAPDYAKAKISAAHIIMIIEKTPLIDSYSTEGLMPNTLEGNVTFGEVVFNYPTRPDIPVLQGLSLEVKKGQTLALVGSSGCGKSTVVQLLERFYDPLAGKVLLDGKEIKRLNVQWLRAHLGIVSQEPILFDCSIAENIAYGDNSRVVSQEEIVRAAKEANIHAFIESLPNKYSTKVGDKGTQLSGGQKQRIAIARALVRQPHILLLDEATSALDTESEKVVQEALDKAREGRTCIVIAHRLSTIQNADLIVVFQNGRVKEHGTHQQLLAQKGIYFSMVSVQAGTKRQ
For series [2], the system named is KBV. Nature of the series: Antimigratory activity against human KVB cells assessed as inhibition of cell migration at 50 nM and incubated for 24 hrs by scratch wound healing assay. The format is functional, cell-based.
The test system of series [3] is KBV. The series can be described thus: Inhibition of colony formation of human KVB cells assessed as reduction in colonies at 2.5 uM measured after 48 hrs by crystal violet staining based analysis. The format is functional, cell-based.
The nature of series [4]: Reversal of multi-drug resistance in human KVB cells assessed as increase in PTX-induced cytotoxicity by measuring cell survival at 10 uM measured after 72 hrs incubation in presence of 100 nM paclitaxel by MTT assay relative to control. In kind it is functional, KBV. Background: Formazan colour is commonly taken as a measure of viable cells.
Series [5] can be described thus: Cytotoxicity against human KBV cells assessed as cell survival at 10 uM measured after 72 hrs incubation by MTT assay relative to control. To be noted: read-out: Activity. In kind it is functional.
The nature of series [6]: Reversal of multi-drug resistance in human KVB cells assessed as increase in PTX-induced cytotoxicity by measuring cell survival at 5 uM measured after 72 hrs incubation in presence of 100 nM paclitaxel by MTT assay relative to control. The format is functional, KBV.
The nature of series [7]: Reversal fold, ratio of PTX IC50 to PTX IC50 in presence of test compound for reversal of multi-drug resistance in human KVB cells at 10 uM measured after 72 hrs by MTT assay. The format is functional, KBV.
A short description of series [8]: Reversal fold, ratio of cisplatin IC50 to cisplatin IC50 in presence of test compound for reversal of multi-drug resistance in human KVB cells at 25 uM measured after 72 hrs by MTT assay. The format is functional, KBV.
Series [9] in a line: Cytotoxicity against human HK-2 cells assessed as cell survival measured after 72 hrs incubation by MTT assay. In kind it is toxicity, cell-based.
Series [10] concerns the target T1, ATP-dependent translocase ABCB1. Nature of the series: Inhibition of P-gp-mediated rhodamine-123 efflux in human KVB cells assessed as increase in intracellular Rhodamine-123 accumulation at 10 uM incubated for 30 mins by flow cytometry. The format is cell-based. To be noted: kbv, 0.5 h. For orientation: Flow cytometry measures light scatter and fluorescence of single cells or particles in a stream.

Series [11] in a line: Cytotoxicity against human KBV cells assessed as cell survival measured after 72 hrs incubation by MTT assay. In kind it is functional, cell-based.
Series [12] can be described thus: Cytotoxicity against HUVEC cells assessed as cell survival measured after 72 hrs incubation by MTT assay. In kind it is toxicity, cell-based. Conditions: human.
The nature of series [13]: Reversal fold, ratio of 5-fluorouracil IC50 to 5-fluorouracil IC50 in presence of test compound for reversal of multi-drug resistance in human KVB cells at 10 uM measured after 72 hrs by MTT assay. In kind it is functional, KBV.

`CC(C)(O)[C@H]1CC[C@@](C)([C@H]2CC[C@]3(C)[C@@H]2[C@H](O)C[C@@H]2[C@@]4(C)CC[C@H](O)C(C)(C)[C@@H]4CC[C@]23C)O1`: the Activity result in [1] was “Not Active”.

As to `CC(=O)O[C@H]1C(=O)[C@@]2(C)[C@H]([C@H](OC(=O)c3ccccc3)[C@]3(O)C[C@H](OC(=O)[C@H](O)[C@@H](NC(=O)c4ccccc4)c4ccccc4)C(C)=C1C3(C)C)[C@]1(OC(C)=O)CO[C@@H]1C[C@@H]2O`, the outcome with KBV [2] and in the series with KBV [3] was inactive.

For `CC(C)(C)OC(=O)N1CCCC[C@H]1C(=O)N[C@H]1CC[C@]2(C)[C@H]3C[C@@H](O)[C@@H]4[C@@H]([C@]5(C)CC[C@H](C(C)(C)O)O5)CC[C@@]4(C)[C@]3(C)CC[C@H]2C1(C)C`, the Activity is reported as 26% in series [4] and 61% in series [6]. The viability at 10 µM in series [5] amounted to 102%. In addition, the Ratio in [7] was found to be 66.

For `CC(C)(C)OC(=O)N1CC[C@@H](C(=O)N[C@H]2CC[C@]3(C)[C@H]4C[C@@H](O)[C@@H]5[C@@H]([C@]6(C)CC[C@H](C(C)(C)O)O6)CC[C@@]5(C)[C@]4(C)CC[C@H]3C2(C)C)C1`, the Activity in [4] is on record as 31%; in [6], 54%. Further, the viability at 10 µM in series [5] amounted to 81%. In addition, the Ratio in [7] turned out to be 76.

As for `CC(C)(C)OC(=O)NCCCCCC(=O)N[C@H]1CC[C@]2(C)[C@H]3C[C@@H](O)[C@@H]4[C@@H]([C@]5(C)CC[C@H](C(C)(C)O)O5)CC[C@@]4(C)[C@]3(C)CC[C@H]2C1(C)C`, the outcome in series [1] was Active.

Turning to `CC(C)(C)OC(=O)N1CCC[C@@H]1C(=O)N[C@H]1CC[C@]2(C)[C@H]3C[C@@H](O)[C@@H]4[C@@H]([C@]5(C)CC[C@H](C(C)(C)O)O5)CC[C@@]4(C)[C@]3(C)CC[C@H]2C1(C)C`, the values for the Activity in [4], in [6] and in [1] were 21%, 36% and “Active”, respectively. Further, in series [5], the viability at 10 µM was 88%. Also, in [7], the Ratio came out at 157.7.

For the compound `CN(C)C(=O)CCSC(SCCC(=O)O)c1cccc(/C=C/c2ccc3ccc(Cl)cc3n2)c1` (stereo unspecified) [MK-571], the “Ratio IC50” value in [8] is 6.4.

For `CC(C)(O)[C@H]1CC[C@@](C)([C@H]2CC[C@]3(C)[C@@H]2[C@H](O)C[C@@H]2[C@@]4(C)CC[C@H](NC(=O)[C@H]5CCCN5)C(C)(C)[C@@H]4CC[C@]23C)O1`, the Activity in [4] was 63%; in [6], 73%. Also, in series [5], the viability at 10 µM was 109%.

As for `CC1(C(=O)N[C@H]2CC[C@]3(C)[C@H]4C[C@@H](O)[C@@H]5[C@@H]([C@]6(C)CC[C@H](C(C)(C)O)O6)CC[C@@]5(C)[C@]4(C)CC[C@H]3C2(C)C)COC1`, the Activity in series [4] came out at 50%; in [6], 59%. The viability at 10 µM in series [5] was determined as 84%.

As for `CC(C)(C)OC(=O)N1CCOC[C@H]1C(=O)N[C@H]1CC[C@]2(C)[C@H]3C[C@@H](O)[C@@H]4[C@@H]([C@]5(C)CC[C@H](C(C)(C)O)O5)CC[C@@]4(C)[C@]3(C)CC[C@H]2C1(C)C`, the Activity in [4] is 55%; in series [6], 81%. In series [5], the viability at 10 µM worked out at 89%.

For orientation: IC50 means the concentration at which inhibition is half-maximal. As for `COc1cc2c(cc1OC)CN(CCc1ccc(NC(=O)c3cc(OC)c(OC)cc3NC(=O)c3cnc4ccccc4c3)cc1)CC2`, the half-maximal inhibitory concentration (IC50) at 72 h was found to be 8.03 µM in [9] (read-out: IC50) and 40.3 µM in series [12]. Moreover, in series [10], the “inhibition (INH)” value is listed as “Active”. Besides, in series [11], the concentration for half-maximal inhibition (IC50) was found to be 8.66 µM. Further, in [7], the Ratio was found to be 206.6.

As to `COc1ccc2c3c([nH]c2c1)[C@H](CC(C)C)N1C(=O)[C@H](CCC(=O)OC(C)(C)C)NC(=O)[C@@H]1C3`, the “Ratio IC50” value in series [13] is given as 3.2.

For the compound `CC(C)(O)[C@H]1CC[C@@](C)([C@H]2CC[C@]3(C)[C@@H]2[C@H](O)C[C@@H]2[C@@]4(C)CC[C@H](NC(=O)[C@@H]5CCCN5)C(C)(C)[C@@H]4CC[C@]23C)O1`, the Activity in [4] is 30%; in series [6] it was 38%; in series [1] it was “Not Active”. The viability at 10 µM in series [5] was determined as 100%. For the same compound, in [7], the Ratio is 65.1.

As for `COc1ccc(CCN(C)CCCC(C#N)(c2ccc(OC)c(OC)c2)C(C)C)cc1OC` (stereo unspecified), the concentration for half-maximal inhibition (IC50) at 72 h in series [9] is 53.4 µM; in [12], > 100 µM. The result in series [1] was Active.

As to `CC(C)(C)OC(=O)N1CC(F)(F)C[C@H]1C(=O)N[C@H]1CC[C@]2(C)[C@H]3C[C@@H](O)[C@@H]4[C@@H]([C@]5(C)CC[C@H](C(C)(C)O)O5)CC[C@@]4(C)[C@]3(C)CC[C@H]2C1(C)C`, the Activity in series [4] was found to be 64%; in series [6] it was 65%. In series [5], the viability at 10 µM turned out to be 100%.

Consider `CC(C)(C)OC(=O)N1C[C@H](F)C[C@H]1C(=O)N[C@H]1CC[C@]2(C)[C@H]3C[C@@H](O)[C@@H]4[C@@H]([C@]5(C)CC[C@H](C(C)(C)O)O5)CC[C@@]4(C)[C@]3(C)CC[C@H]2C1(C)C`, for which the results for the Activity in [4] and in series [6] were 26% and 46%, respectively. The viability at 10 µM in series [5] was 114%. Further, the Ratio in series [7] is recorded as 102.4.

As to `CC(C)(O)[C@H]1CC[C@@](C)([C@H]2CC[C@]3(C)[C@@H]2[C@H](O)C[C@@H]2[C@@]4(C)CC[C@H](NC(=O)[C@@H]5CCC(=O)O5)C(C)(C)[C@@H]4CC[C@]23C)O1`, the values for the Activity in series [4] and in [6] were 94% and 95%, respectively. For the same compound, the viability at 10 µM in [5] came out at 104%.

Turning to `CC(C)(O)[C@H]1CC[C@@](C)([C@H]2CC[C@]3(C)[C@@H]2[C@H](O)C[C@@H]2[C@@]4(C)CC[C@H](NC(=O)[C@H]5CCC(=O)N5)C(C)(C)[C@@H]4CC[C@]23C)O1`, the Activity in series [4] was determined as 87%; in [6], 93%. Also, the viability at 10 µM in [5] was 92%.

Consider `CC(C)(C)OC(=O)N1CCC[C@H](C(=O)N[C@H]2CC[C@]3(C)[C@H]4C[C@@H](O)[C@@H]5[C@@H]([C@]6(C)CC[C@H](C(C)(C)O)O6)CC[C@@]5(C)[C@]4(C)CC[C@H]3C2(C)C)C1`, for which the Activity was 47% in [4] and 76% in [6]. In addition, the viability at 10 µM in [5] stood at 93%.

As for `CC(C)(C)OC(=O)N1C[C@H](O)C[C@H]1C(=O)N[C@H]1CC[C@]2(C)[C@H]3C[C@@H](O)[C@@H]4[C@@H]([C@]5(C)CC[C@H](C(C)(C)O)O5)CC[C@@]4(C)[C@]3(C)CC[C@H]2C1(C)C`, the Activity came out at 93% in [4] and 90% in series [6]. In series [5], the viability at 10 µM amounted to 105%.

On to `CC(C)(O)[C@H]1CC[C@@](C)([C@H]2CC[C@]3(C)[C@@H]2[C@H](O)C[C@@H]2[C@@]4(C)CC[C@H](NC(=O)[C@@H]5C[C@@H](F)CN5)C(C)(C)[C@@H]4CC[C@]23C)O1`, for which the Activity in series [4] is 66%; in series [6], 78%. Moreover, the viability at 10 µM in series [5] was 99%.

As for `COc1cccc2c1C(=O)c1c(O)c3c(c(O)c1C2=O)C[C@@](O)(C(=O)CO)C[C@@H]3O[C@H]1C[C@H](N)[C@H](O)[C@H](C)O1` [DOXORUBICIN HYDROCHLORIDE], the IC50 in series [11] is 8.19 µM.

As to `CC(C)(O)[C@H]1CC[C@@](C)([C@H]2CC[C@]3(C)[C@@H]2[C@H](O)C[C@@H]2[C@@]4(C)CC[C@H](NC(=O)[C@@H]5CC(F)(F)CN5)C(C)(C)[C@@H]4CC[C@]23C)O1`, the Activity in [4] was 62%; in series [6], 78%. Moreover, the viability at 10 µM in series [5] turned out to be 95%.

As for `CC(C)(C)OC(=O)N1CC[C@@H]1C(=O)N[C@H]1CC[C@]2(C)[C@H]3C[C@@H](O)[C@@H]4[C@@H]([C@]5(C)CC[C@H](C(C)(C)O)O5)CC[C@@]4(C)[C@]3(C)CC[C@H]2C1(C)C`, the Activity in series [4] was 27%; in series [6], 47%. Besides, the viability at 10 µM in series [5] is 99%. In [7], the Ratio was 100.1.

Consider `CC(C)(O)[C@H]1CC[C@@](C)([C@H]2CC[C@]3(C)[C@@H]2[C@H](O)C[C@@H]2[C@@]4(C)CC[C@H](NC(=O)[C@H]5CCCCN5)C(C)(C)[C@@H]4CC[C@]23C)O1`, for which the Activity in series [4] amounted to 28%; in series [6], 56%. For the same compound, the viability at 10 µM in [5] was 99%. Moreover, in series [7] (72 h, 10 µM), the Ratio was 89.1 and 106.3.

Take `O=c1[nH]cc(F)c(=O)[nH]1` [FLUOROURACIL]: the half-maximal inhibitory concentration (IC50) in [11] was determined as 829 µM.
